Source: patent US20040127455A1, “Muscosal immunoregulatory agent and its use” (KABUSHIKI Kaisha Hayashibara Seibutsu KK, priority 2000, published 2004)

Tests used:
[1] = system: immunocompetent cells from the Peyer's patches; test: IFN-γ production by immunocompetent cells from the Peyer's patches of orally treated mice, LPS stimulation (Experiment 1); format: in vivo, male C3H/HeN mice; details: 1 g/kg oral, once per day for five days, two days culture, versus non-treated mice (FIG. 1)
Protocol: The effect on response of immunocompetent cells with trehalose administration was evaluated based on the production level of IFN-γ as a merkmal when the immunocompetent cells from the Peyer's patches were stimulated with lipopolysaccharide (LPS). IFN-γ is a cytokine which also improves the production of IgA as described above. α,α-Trehalose crystalline powder (registered trademark of “TREHA”, commercialized by Hayashibara Shoji Co. Ltd., Okayama, Japan) was dissolved in distilled water and sterilized, and then administrated into male C3H/HeN, five weeks aged mice (ten mice in each group) through oral pathway for five days by one time per day with a dosage of 1 g/kg mouse body weight of α,α-trehalose. Non-α,α-trehalose administrated mice as a control were administrated with an equal volume of distilled water. All the mice were bred under a clean environment, and freely fed with a sterilized solid fodder and water. […] The cells were incubated for two days in an incubator maintained at 37° C. and 5% CO2, after that, the IFN-γ concentration in each culture was measured by a conventional enzyme immunoassay. […]

[2] = system: immunocompetent cells from the Peyer's patches; test: IL-2, IFN-γ and IgA production by immunocompetent cells from the Peyer's patches of orally treated mice, LPS or Con A stimulation (Experiment 2); format: in vivo, female ddY mice; details: 0.1 g/kg oral, five times per week for four weeks, three days culture
Protocol: The effect on the response of immunocompetent cells with trehalose administration was evaluated by the production level of IL-2, IFN-γ, and IgA as a merkmal when the immunocompetent cells from the Peyer's patches stimulated with lipopolysaccharide (LPS) or Concanavalin A (Con A). Specifically, 0.1 g/kg mouse body weight of α,α-trehalose was administrated into female ddY mice through oral administration for four weeks with five times per a week, and non-α,α-trehalose administrated mice were used as a control. All the mice were anatomized and picked up all the Peyer's patches, which were then cut into pieces and treated with 0.2% (w/v) of collagenase solution at 37° C. for 30 minutes, passed through a cell strainer to remove non-digestive materials, and centrifuged to obtain a pellet. The pellet was suspended with a 45% (v/v) percol solution, and the suspension was put on a 75% (v/v) percol solution and centrifuged. Then, immunocompetent cells in an inter layer of percol were recovered and suspended in RPMI1640 medium with 10% of fetal calf serum and 5×10^−5 mol/l of 2-mercaptethanol. The resulting suspension was divided into three groups, and the two groups of which were mixed with 2 μg/ml of LPS or 5 μg/ml of Con A and adjusted a final concentration to 1×10^6 cells/ml. The resulting group as a control was not received with the above stimulation. They were incubated for three days in an incubator maintained at 37° C. and 5% CO2. Thereafter, the concentrations of the IL-2, IFN-γ and IgA concentration in the resulting cultures were measured by a conventional immunoassay method in Experiment 1.

With OC[C@H]1O[C@H](O[C@H]2O[C@H](CO)[C@@H](O)[C@H](O)[C@H]2O)[C@H](O)[C@@H](O)[C@@H]1O [α,α-Trehalose, α,α-trehalose] the “IFN-γ production with no LPS stimulation” value ([1]; cells with 0 μg/ml LPS) was “tendency to decrease IFN-γ production”, the “IFN-γ production under the LPS stimulation” value ([1]; cells with 0.2 or 1 μg/ml LPS) was “stronger tendency of increasing production of IFN-γ” and the IFN-γ ([2]; no stimulation) was “Under 0.4 IU/ml”. For the same molecule, the IL-2 ([2]; no stimulation) was “Under 50 pg”, the IgA ([2]; no stimulation) was 719 ng/mL and the IFN-γ ([2]; stimulation Con A 5 μg/ml) was 6.4 IU/ml. The IL-2 ([2]; stimulation Con A 5 μg/ml) was “Under 50 pg”, the IgA ([2]; stimulation Con A 5 μg/ml) was 1671 ng/mL and the IFN-γ ([2]; stimulation LPS 2 μg/ml) was 4.5 IU/ml. The IL-2 ([2]; stimulation LPS 2 μg/ml) was 115 pg and the IgA ([2]; stimulation LPS 2 μg/ml) was 2305 ng/mL.
